Test results taken from US20210247386A1, “A DEVICE AND METHOD FOR DETERMINING CELL INDENTATION ACTIVITY” (TECHNION RESEARCH & DEVELOPMENT FOUNDATION LIMITED, priority 2018, published 2021).
Entries after “also recorded” stand apart in the source; their conditions may differ.

Tests used:
[1] = system: breast cancer cell lines; experiment: Gel indentation assay of breast cancer cell lines on PAM gel after Taxol treatment; assay type: cell-based, human; settings: Taxol 25 μM for 1-2 hr, PAM gel with Young's modulus 2.4 kPa, versus untreated cells
Text: (§1) The inventors used various commercially- or otherwise-available, human, epithelial breast and pancreatic cancer and benign cell lines (all from ATCC, Manassas, Va.). For breast cancer cells, the inventors used three cell lines: high metastatic potential (MP, MDA-MB-231) and low MP (MDA-MB-468) breast cancer cells that had been collected from lung metastases, and benign fibrocystic cells (MCF-10A) as control. In addition, the inventors used a high MP breast cancer LM2-4 cell-line that was developed by collecting twice metastasized cells from the human MDA-MB-231 cell line after being seeded in mice. […]
(§2) The inventors seeded 3×10^5 cells on each gel within the respective media, resulting in an average of 25±5 cells per field-of-view (area of 0.016 mm^2). […] The focal depth of each image was recorded independently during the experiment, following manual focusing, using an automated, computer-controlled microscope stage. […]
(§3) At each measurement time-point, locations on the gel were randomly chosen and at least 3 images were taken: (i) a DIC image of the cells on the gel, (ii) a fluorescence image of the particles embedded at the focal plane of the gel surface, and (iii) a series of fluorescence images at the lowest focal depth where particles were observed, to identify each indenting cells' depth. […]

[2] = system: pancreatic cancer cell lines; experiment: Gel indentation assay of pancreatic cancer cell lines on PAM gel after Taxol treatment; assay type: cell-based, human; settings: Taxol 25 μM for 1-2 hr, PAM gel with Young's modulus 2.4 kPa, versus untreated cells
Text: as §1, §2, §3

CC(=O)O[C@H]1C(=O)[C@@]2(C)[C@H]([C@H](OC(=O)c3ccccc3)[C@]3(O)C[C@H](OC(=O)[C@H](O)[C@@H](NC(=O)c4ccccc4)c4ccccc4)C(C)=C1C3(C)C)[C@]1(OC(C)=O)CO[C@@H]1C[C@@H]2O [Taxol, Paclitaxel]
reduction; also recorded: reduced: attained indentation depths [1] | percentage of indenting cells [1] | attained indentation depths [2] | percentage of indenting cells [2]
